# Test results from patent publication US20210023024A1, “COMPOSITION FOR TREATMENT OF CHRONIC WOUNDS” (priority 2018, published 2021).
# System: diabetic foot ulcer
# Assay: Clinical use of triclosan cream on diabetic foot ulcers (patients 1 and 2)
# Assay type: in vivo, human
# Excerpt: A triclosan cream formulation, according to an embodiment of the invention (Example 5), was applied to a number of patients, with differently presented conditions and symptoms. as described below:
# diabetic. Neuro ischaemic. Heart rate: pulse mono and biphasic depending on the weather. Indication of reduced arterial blood flow due to a blockage or low elasticity. Ex-smoker. Stage 3 Non healing dorsal diabetic foot ulcer.
# The patient had 2 ulcers: • 1) one on the dorsal IPJ on the 2nd toe, size of 5 pence, 1 cm sq and • 2) one on apex of 1st toe, size of 5p, 1 cm sq.
# The patient was treated twice a week. The ulcer was filled with the cream to the brim, so the cream was level with skin surface. […] Triclosan cream was applied for 8 weeks. The cream was packed into the wound and a non-adhesive foam dressing was applied. The patient then wore rocker bottom soles to reduce the weight and pressure. Treatment for this toe ulcer started on Mar. 11, 2017 and healed on 20/1/18. No other medication was used.
# The patient had 1 ulcer on sole of foot, approximately the size of 50 pence.
# While the patient was receiving chemotherapy, the triclosan cream was applied for 8 weeks. The triclosan cream was applied every alternate day, with a sharp debridement and cleansed with sterile saline solution prior to application of the cream. In the last two weeks of treatment the cream was applied daily. […]
smiles,measurement,setting,value
Cc1onc(-c2c(F)cccc2Cl)c1C(=O)N[C@@H]1C(=O)N2[C@@H]1SC(C)(C)[C@@H]2C(=O)O [Flucloxacilin],outcome of previous treatment,"Patient 1, before triclosan cream, Flucloxacilin 6 months intermittently, 6 courses",could not clear the infection in the wound
same,outcome of previous treatment,"Patient 2, before triclosan cream",could not clear the infection in the wound
